The results in this text go back to paper PMC13056558 (Nature Microbiology, 2026).

Assay [1] addresses T1, 60 kDa chaperonin HpGroEL (Helicobacter pylori, UniProt P42383). In words: Gel-based in situ competitive labelling against Metro-P3 (ABPP). The class given is cell-based. The arrangement: gene groEL; endogenous, H. pylori 26695 live cells.
The target in assay [2] is T2, thiol peroxidase HpTpx (Helicobacter pylori, UniProt O25151).
T2 sequence (O25151 2-166): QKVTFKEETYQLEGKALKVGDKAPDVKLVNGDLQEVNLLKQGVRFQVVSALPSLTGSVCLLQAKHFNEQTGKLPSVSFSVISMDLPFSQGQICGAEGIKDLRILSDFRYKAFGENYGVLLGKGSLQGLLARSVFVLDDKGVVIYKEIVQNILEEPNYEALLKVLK
The assay is described as above. It is filed as cell-based. The arrangement: gene tpx; endogenous, H. pylori 26695 live cells.

Assay [3] deals with T2, thiol peroxidase HpTpx. Description: Intact protein MS and peroxidase assay of modified enzyme; EC50 is from in situ competition with Metro-P3 in H. pylori. It is filed as cell-based. The arrangement: gene tpx; recombinant HpTpx wild type, modified during anaerobic expression in E. coli.
Assay [4] deals with T1, 60 kDa chaperonin HpGroEL. In words: Intact protein MS and malachite green ATPase assay of modified enzyme; EC50 is from in situ competition with Metro-P3 in H. pylori. It is filed as cell-based. The arrangement: gene groEL; recombinant HpGroEL, modified during anaerobic expression in E. coli.
Assay [5] addresses T3, thiol peroxidase HpTpx (Helicobacter pylori, UniProt O25151, C94A).
T3 construct: gene tpx
Description: X-ray co-crystal structure, […] Å (reduced amine form Metro*). The class given is binding.

Assay [6] addresses T1, 60 kDa chaperonin HpGroEL. In words: In situ ABPP labelling ([…]), gel and LC-MS/MS, competed by Metro. The arrangement: gene groEL; endogenous, H. pylori 26695 live cells. The class given is cell-based.
The target of assay [7] is T2, thiol peroxidase HpTpx. The description is as above. It is filed as cell-based. The arrangement: gene tpx; endogenous, H. pylori 26695 live cells.

T1 sequence (P42383 whole entry): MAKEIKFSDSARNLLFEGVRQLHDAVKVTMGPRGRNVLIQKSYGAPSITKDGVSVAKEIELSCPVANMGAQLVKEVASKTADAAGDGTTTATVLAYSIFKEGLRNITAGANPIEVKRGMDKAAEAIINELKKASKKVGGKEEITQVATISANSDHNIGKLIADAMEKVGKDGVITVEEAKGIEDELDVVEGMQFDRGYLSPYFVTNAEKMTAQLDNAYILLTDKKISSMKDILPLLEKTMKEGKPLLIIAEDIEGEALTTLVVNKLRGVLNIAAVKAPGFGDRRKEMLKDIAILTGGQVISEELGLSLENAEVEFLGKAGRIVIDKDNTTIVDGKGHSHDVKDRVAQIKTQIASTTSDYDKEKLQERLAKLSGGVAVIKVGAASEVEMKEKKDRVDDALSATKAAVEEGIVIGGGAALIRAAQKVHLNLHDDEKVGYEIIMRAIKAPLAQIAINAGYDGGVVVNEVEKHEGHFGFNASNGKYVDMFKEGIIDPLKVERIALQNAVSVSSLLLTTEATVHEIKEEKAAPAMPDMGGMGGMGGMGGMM

For `CCOCCn1c([N+](=O)[O-])cnc1C` [MF-03], the EC50 (commonly the concentration needed to bring the measured effect to its halfway point) in assay [1] was 40 µM; in assay [2] it was 17 µM.

Regarding `Cc1ncc([N+](=O)[O-])n1CCO` [Metro, Metronidazole], the results for the EC50 in assay [3] and in assay [4] were 250 µM and 24 µM, respectively. The “X-ray co-crystal structure, 1.75 Å (reduced amine form Metro*)” value in assay [5] is recorded as “forms an irreversible thioether bond with the CP residue”.

Regarding `C#CCOCCn1c([N+](=O)[O-])cnc1C` [Metro-P1], the “In situ ABPP labelling (1 μM), gel and LC-MS/MS, competed by Metro” value in assay [6] was “a 60-kDa band decreased for all three probes”; in assay [7], 18-kDa HpTpx band was solely diminished in case of ether derivatives Metro-P1 and Metro-P3 upon Metro pre-incubation.
